Experimental data as given in patent publication US20250221971A1, “METHODS OF TREATMENT FOR CYSTIC FIBROSIS” (Vertex Pharmaceuticals Incorporated, priority 2022, published 2025).

Experiments:
[1] = target: T1, CFTR in F508del/MF-HBE cells (Homo sapiens, UniProt P13569, DEL508-508); test: Ussing chamber assay of CFTR-mediated short-circuit currents (potentiator identification); assay type: cell-based; conditions: with 10 μM Compound VII, 18-24 hours at 37° C., 20% human serum
T1 construct: human bronchial epithelial (HBE) cells derived from CF subjects heterozygous for F508del and a minimal function CFTR mutation; endogenous in cells; host or cells: primary human bronchial epithelial cells from CF subjects (F508del/MF-HBE)
T1 sequence (P13569 with tags, fused parts or gaps DEL508-508): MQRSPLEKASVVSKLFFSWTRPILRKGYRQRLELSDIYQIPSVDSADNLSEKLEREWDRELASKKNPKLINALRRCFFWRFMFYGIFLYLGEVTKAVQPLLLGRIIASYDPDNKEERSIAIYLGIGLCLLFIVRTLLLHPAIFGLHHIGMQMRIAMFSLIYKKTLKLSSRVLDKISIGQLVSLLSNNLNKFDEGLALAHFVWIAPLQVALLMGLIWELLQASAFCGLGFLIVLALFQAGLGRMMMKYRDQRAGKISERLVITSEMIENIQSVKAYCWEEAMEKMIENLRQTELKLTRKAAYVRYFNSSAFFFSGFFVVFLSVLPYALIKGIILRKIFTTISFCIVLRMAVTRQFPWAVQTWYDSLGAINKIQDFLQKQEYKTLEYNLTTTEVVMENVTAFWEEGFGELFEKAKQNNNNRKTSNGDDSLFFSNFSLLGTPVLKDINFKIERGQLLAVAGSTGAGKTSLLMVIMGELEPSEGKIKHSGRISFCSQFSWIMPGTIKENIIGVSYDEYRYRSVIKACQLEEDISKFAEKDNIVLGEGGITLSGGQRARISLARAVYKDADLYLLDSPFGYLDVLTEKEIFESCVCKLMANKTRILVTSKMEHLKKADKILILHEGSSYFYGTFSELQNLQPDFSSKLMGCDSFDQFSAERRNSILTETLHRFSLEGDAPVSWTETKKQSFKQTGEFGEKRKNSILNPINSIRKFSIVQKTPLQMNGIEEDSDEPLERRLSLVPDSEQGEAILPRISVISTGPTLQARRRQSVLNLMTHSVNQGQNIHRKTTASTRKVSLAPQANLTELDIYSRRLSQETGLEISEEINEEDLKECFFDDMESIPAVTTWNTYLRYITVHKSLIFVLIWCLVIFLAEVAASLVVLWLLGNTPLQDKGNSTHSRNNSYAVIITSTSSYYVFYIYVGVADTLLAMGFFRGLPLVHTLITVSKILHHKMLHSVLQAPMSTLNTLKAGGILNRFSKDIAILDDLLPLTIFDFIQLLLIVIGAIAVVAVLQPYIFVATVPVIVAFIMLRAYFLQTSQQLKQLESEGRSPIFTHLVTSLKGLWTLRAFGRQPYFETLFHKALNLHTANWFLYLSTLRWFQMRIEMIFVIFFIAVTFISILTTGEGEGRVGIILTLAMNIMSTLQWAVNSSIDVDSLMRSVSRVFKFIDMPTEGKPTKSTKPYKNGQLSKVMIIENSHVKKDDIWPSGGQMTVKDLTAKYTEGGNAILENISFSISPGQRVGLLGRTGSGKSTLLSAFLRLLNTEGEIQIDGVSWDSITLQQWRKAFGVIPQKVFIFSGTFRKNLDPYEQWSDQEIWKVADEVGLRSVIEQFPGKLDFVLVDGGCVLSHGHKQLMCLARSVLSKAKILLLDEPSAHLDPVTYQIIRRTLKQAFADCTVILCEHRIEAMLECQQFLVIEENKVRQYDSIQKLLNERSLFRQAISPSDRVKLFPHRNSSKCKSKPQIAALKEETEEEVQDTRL
Protocol: Ussing chamber experiments were performed using human bronchial epithelial (HBE) cells derived from CF subjects heterozygous for F508del and a minimal function CFTR mutation (F508del/MF-HBE) and cultured as previously described (Neuberger T., Burton B., Clark H., Van Goor F. Methods Mol Biol 2011:741:39-54). After four days the apical media was removed, and the cells were grown at an air liquid interface for >14 days prior to use.
To isolate the CFTR-mediated short-circuit (ISC) current, F508del/MF-HBE grown on Costar® Snapwell™ cell culture inserts were mounted in an Ussing chamber and the transepithelial ISC was measured under voltage-clamp recording conditions (Vhold=0 mV) at 37° C. The basolateral solution contained (in mM) 145 NaCl, 0.83 K2HPO4, 3.3 KH2PO4, 1.2 MgCl2, 1.2 CaCl2), 10 Glucose, 10 HEPES (pH adjusted to 7.4 with NaOH) and the apical solution contained (in mM) 145 NaGluconate, 1.2 MgCl2, 1.2 CaCl2), 10 glucose, 10 HEPES (pH adjusted to 7.4 with NaOH) and 30 μM amiloride to block the epithelial sodium channel. […] The CFTR-mediated ISC (μA/cm^2) for each condition was determined from the peak forskolin response to the steady-state current following inhibition.
The activity of the CFTR potentiator compounds on the CFTR-mediated ISC was determined in Ussing chamber studies as described above. […]

[2] = First-in-human clinical study of safety, tolerability and PK in healthy subjects; assay type: in vivo; conditions: all cohorts (Parts A, B, C), single doses 0.6-540 mg, multiple total daily doses 2-315 mg
Protocol: In a first-in-human (FIH) clinical study of Compound I, designed to evaluate the safety, tolerability, and pharmacokinetics (PK) of Compound I in healthy subjects, an assessment of drug-drug interactions (DDIs) between Compound I and itraconazole and midazolam was conducted.
This first-in-human (FIH) study of Compound I included three parts (Parts A, B, and C).
Approximately 154 healthy adult subjects were planned to be enrolled in planned cohorts. Approximately 76 subjects were planned to be enrolled in Part A, approximately 48 subjects in Part B, and approximately 30 subjects in Part C. There was no pre-specified ratio of males to females, but reasonable effort was made to enroll females of non-childbearing potential in all dosing cohorts.
Six dose escalation cohorts each were planned for Parts A and B. Additional cohorts in Part A were enrolled based on data from previous cohorts. In each cohort, approximately eight subjects were randomized 3:1 to receive Compound I or placebo as a suspension, under fasted or fed conditions. Eight subjects were enrolled in food-effect Cohort A9 to receive open-label Compound I; subsequent cohorts were dosed under fed conditions. […]
Food effect was evaluated in open-label, single-sequence Cohort A9 to evaluate the effect of food on the PK of Compound I based on emerging PK data during dose escalation. […]

C[C@@H]1CCCCC[C@](O)(C(F)(F)F)C2=NN=C(O2)c2nc(c(C(F)(F)F)cc2N)O1 [Compound I, (6R,12R)-17-amino-12-methyl-6,15-bis(trifluoromethyl)-13,19-dioxa-3,4,18-triazatricyclo[12.3.1.12,5]nonadeca-1(18),2,4,14,16-pentaen-6-ol]
EC50 [1]: < 500 nM
safety and tolerability [2]: generally safe and well-tolerated
